Test results reported in paper PMC9281440, “In Vivo Distribution and Therapeutic Efficacy of Radioiodine-Labeled pH-Low Insertion Peptide Variant 3 in a Mouse Model of Breast Cancer” (Molecular Imaging, 2022).

Tested on: MDA-MB-231 xenografts
Test: Therapeutic efficacy in MDA-MB-231 xenografts
Assay type: in vivo, mouse
Conditions: tail vein injection on days 0 and 3 (29.6 MBq each for radioactive groups), end of treatment (26 days), mean ± SD, n = 5
Protocol: Five-week-old female athymic BALB/c nude mice (Shanghai Slaccas Experiment Animal Corp., Shanghai, China) were used in our study. Mouse xenograft models of MDA-MB-231, 4T1, and SK-BR-3 cells were produced by the subcutaneous injection of 5 × 10^6 cells (suspended in 150 μL PBS) into the right axilla of each mouse. The mice were used in subsequent experiments when tumor diameter reached 0.5-0.9 cm. The study protocol was approved by the institutional review board and by the Experimental Animal Center of Ruijin Hospital affiliated to the School of Medicine of Shanghai Jiao Tong University.
Twenty mice-bearing MDA-MB-231 human BC xenografts were divided into four groups of five animals. Group 1 was injected with ^131I-Var3-pHLIP in the tail vein on days 0 and 3 (29.6 MBq each day). Groups 2, 3, and 4 were injected with the same volume of Var3-pHLIP, ^131I (29.6 MBq), and saline solution, respectively. Tumor size was measured every 2 to 4 days postinjection (pi) for 26 days using a caliper. Tumor volumes (V, […]) were calculated using the formula: V = (a × b^2)/2, where a and b are tumor length and width, respectively. Relative tumor volumes were calculated as V/V0 (V0, tumor volume before treatment). The body weight of mice was also determined.

With “ACDDQNPWRAYLDLLFPTDTLLLDLLWK [Var3-pHLIP]” as the sequence, how does the “relative tumor volume (V/V0)” value read?
Its value is 4.17 ± 0.51.
